Assay results published in US20090137572A1, “2-substituted-4-heteroaryl-pyrimidines useful for the treatment of proliferative disorders” (priority 2004, published 2009).

Experiments:
CDK1-cyclin B = CDK1-cyclin B (Homo sapiens, UniProt P06493); experiment: Kinase assay (radioactive phosphate incorporation), CDK1-cyclin B; format: biochemical; conditions: read-out: Kinase Inhibition pIC50 CDK1-cyclin B (converted)
Experimental: (§1) Kinase assays. The compounds of the invention above were investigated for their ability to inhibit the enzymatic activity of various protein kinases (Table 2). This was achieved by measurement of incorporation of radioactive phosphate from ATP into appropriate polypeptide substrates. Recombinant protein kinases and kinase complexes were produced or obtained commercially. Assays were performed using 96-well plates and appropriate assay buffers (typically 25 mM β-glycerophosphate, 20 mM MOPS, 5 mM EGTA, 1 mM DTT, 1 mM […], pH 7.4), into which were added 2-4 μg of active enzyme with appropriate substrates. The reactions were initiated by addition of Mg/ATP mix (15 mM MgCl2+100 μM ATP with 30-50 kBq per well of [γ-^32P]-ATP) and mixtures incubated as required at 30° C. Reactions were stopped on ice, followed by filtration through p81 filterplates or GF/C filterplates (Whatman Polyfiltronics, Kent, UK). After washing 3 times with 75 mM aq orthophosphoric acid, plates were dried, scintillant added and incorporated radioactivity measured in a scintillation counter (TopCount, Packard Instruments, Pangbourne, Berks, UK). Compounds for kinase assay were made up as 10 mM stocks in DMSO and diluted into 10% DMSO in assay buffer.

[1] = target: T1, Flt3 (FMS-like tyrosine kinase-3) (Homo sapiens, UniProt P36888); experiment: Kinase assay (radioactive phosphate incorporation), Flt3; format: biochemical; conditions: pIC50 is -log(IC50, M), read-out: Kinase Inhibition pIC50 Flt3 (converted)
T1 sequence (P36888 27-993): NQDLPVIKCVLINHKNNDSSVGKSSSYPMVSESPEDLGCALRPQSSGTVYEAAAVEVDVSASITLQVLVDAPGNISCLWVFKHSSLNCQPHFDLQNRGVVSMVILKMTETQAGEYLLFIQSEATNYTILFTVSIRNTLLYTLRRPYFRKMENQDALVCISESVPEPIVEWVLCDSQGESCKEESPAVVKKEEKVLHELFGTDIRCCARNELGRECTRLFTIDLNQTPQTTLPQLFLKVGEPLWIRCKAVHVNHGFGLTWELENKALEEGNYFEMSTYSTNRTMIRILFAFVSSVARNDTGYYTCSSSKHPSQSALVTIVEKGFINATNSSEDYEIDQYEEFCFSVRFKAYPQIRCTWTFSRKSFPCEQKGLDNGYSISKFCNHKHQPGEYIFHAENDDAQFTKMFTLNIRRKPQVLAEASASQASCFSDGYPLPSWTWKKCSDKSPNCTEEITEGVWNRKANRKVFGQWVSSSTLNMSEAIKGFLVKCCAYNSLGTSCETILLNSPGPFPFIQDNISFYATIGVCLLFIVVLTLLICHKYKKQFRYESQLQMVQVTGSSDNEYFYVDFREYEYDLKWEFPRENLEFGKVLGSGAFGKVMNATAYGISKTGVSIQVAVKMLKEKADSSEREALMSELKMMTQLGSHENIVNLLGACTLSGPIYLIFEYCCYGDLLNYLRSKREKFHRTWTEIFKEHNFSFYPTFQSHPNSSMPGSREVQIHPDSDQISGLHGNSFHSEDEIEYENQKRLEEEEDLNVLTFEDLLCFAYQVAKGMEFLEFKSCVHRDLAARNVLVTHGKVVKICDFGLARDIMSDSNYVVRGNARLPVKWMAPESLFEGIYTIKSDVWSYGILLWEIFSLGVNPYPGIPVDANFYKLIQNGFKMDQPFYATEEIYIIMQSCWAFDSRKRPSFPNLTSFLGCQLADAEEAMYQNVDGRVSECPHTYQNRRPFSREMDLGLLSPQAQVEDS
Experimental: as §1

Aurora A kinase = target: T2, Aurora A kinase (Homo sapiens, UniProt O14965); experiment: Aurora-A (human) kinase assay (Kemptide substrate); format: biochemical; conditions: pIC50 is -log(IC50, M); 15 μM ATP; read-out: Kinase Inhibition pIC50 Aurora A kinase (converted)
T2 construct: purchased
T2 sequence (O14965 1-403): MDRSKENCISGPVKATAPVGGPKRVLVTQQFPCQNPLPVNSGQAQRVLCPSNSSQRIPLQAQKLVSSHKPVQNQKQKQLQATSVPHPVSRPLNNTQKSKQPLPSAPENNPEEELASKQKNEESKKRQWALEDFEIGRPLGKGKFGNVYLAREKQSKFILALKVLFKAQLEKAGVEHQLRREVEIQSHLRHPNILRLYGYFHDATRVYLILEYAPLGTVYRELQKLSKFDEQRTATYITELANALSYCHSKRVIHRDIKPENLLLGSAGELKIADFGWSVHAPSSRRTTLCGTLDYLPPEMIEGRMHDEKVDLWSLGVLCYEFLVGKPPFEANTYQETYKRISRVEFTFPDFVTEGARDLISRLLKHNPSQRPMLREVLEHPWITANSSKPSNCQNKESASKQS
In short: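 Kemptide (LRRASLG, 200 μM) phosphorylation by 5-10 ng commercial aurora-A measured as [γ-33P] incorporation at 15 μM ATP with 10 mM Mg acetate, pH 7.0 MOPS buffer. Reaction ran 40 min at room temperature; acid-stopped, captured on P81 filters, scintillation read.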

CDK9/cyclin T1 = CDK9/cyclin T1 (Homo sapiens, UniProt P50750); experiment: CDK 9 assay (CTD peptide substrate); format: biochemical; conditions: read-out: Kinase Inhibition pIC50 CDK9-cyclin T1 (converted)
CDK9/cyclin T1, sequence (P50750 whole entry): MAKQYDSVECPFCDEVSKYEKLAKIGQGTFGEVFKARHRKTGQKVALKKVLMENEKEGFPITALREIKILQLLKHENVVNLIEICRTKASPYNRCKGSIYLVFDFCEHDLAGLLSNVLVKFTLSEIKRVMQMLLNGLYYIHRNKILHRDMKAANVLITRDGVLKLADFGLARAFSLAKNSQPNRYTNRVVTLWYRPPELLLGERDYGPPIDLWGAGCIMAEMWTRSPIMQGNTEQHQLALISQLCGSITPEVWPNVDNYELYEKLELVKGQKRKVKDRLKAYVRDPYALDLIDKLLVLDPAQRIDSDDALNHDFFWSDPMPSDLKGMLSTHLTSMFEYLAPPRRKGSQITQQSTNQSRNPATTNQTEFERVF
CDK9/cyclin T1, sequence (O60563 whole entry partner): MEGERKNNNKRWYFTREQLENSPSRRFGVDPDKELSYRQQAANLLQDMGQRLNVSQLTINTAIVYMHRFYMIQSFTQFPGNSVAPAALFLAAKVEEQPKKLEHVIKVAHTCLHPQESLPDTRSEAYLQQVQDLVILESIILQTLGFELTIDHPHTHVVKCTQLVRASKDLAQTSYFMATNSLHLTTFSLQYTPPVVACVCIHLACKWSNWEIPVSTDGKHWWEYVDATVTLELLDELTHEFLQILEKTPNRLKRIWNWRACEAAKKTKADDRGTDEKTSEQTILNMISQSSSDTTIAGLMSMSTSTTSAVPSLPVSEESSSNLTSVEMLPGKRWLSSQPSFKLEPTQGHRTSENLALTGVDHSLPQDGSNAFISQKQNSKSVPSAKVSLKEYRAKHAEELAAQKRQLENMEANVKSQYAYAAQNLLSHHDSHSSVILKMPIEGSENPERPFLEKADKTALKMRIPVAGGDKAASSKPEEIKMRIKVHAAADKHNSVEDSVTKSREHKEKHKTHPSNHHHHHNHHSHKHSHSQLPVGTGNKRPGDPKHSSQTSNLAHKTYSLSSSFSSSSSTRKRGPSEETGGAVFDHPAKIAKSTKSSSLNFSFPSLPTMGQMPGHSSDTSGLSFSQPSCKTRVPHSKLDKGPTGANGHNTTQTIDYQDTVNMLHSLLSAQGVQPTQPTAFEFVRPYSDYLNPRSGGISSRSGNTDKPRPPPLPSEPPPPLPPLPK
In short: (§2)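 32P transfer from 100 μM ATP (trace [γ-32P]ATP) to a biotinyl CTD (YSPTSPS)4 peptide was measured after 45 min at 30 °C in pH 7.2 MOPS buffer, 15 mM MgCl2, using recombinant human CDK7/cyclin H or CDK9/cyclin T1. Signal read by filter binding and scintillation counting.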

CDK7/cyclin H = CDK7/cyclin H (Homo sapiens, UniProt P50613); experiment: CDK 7 assay (CTD peptide substrate); format: biochemical; conditions: read-out: Kinase Inhibition pIC50 CDK7-cyclin H (converted)
CDK7/cyclin H, sequence (P50613 whole entry): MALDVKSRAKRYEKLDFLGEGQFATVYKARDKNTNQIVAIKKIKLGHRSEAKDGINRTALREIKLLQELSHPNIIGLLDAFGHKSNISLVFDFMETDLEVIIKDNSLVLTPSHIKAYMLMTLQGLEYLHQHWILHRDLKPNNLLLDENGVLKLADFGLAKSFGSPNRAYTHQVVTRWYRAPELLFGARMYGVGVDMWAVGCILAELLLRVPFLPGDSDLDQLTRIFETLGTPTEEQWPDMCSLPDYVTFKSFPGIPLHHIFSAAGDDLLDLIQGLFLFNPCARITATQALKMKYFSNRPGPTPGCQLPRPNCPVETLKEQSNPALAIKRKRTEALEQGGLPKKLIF
CDK7/cyclin H, sequence (P51946 whole entry partner): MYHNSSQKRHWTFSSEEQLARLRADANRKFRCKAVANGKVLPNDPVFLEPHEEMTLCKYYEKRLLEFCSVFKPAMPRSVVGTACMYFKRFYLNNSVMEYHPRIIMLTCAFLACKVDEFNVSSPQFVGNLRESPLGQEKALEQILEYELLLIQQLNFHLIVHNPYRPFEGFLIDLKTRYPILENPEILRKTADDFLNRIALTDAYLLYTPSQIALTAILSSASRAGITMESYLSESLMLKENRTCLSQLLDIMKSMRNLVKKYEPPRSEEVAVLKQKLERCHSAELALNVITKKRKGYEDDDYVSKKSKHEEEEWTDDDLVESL
In short: as §2

CDK2-cycline E = CDK2-cycline E (Homo sapiens, UniProt P24941); experiment: Kinase assay (radioactive phosphate incorporation), CDK2-cyclin E; format: biochemical; conditions: read-out: Kinase Inhibition pIC50 CDK2-cycline E (converted)
In short: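 Inhibition measured as 32P transfer from ATP (100 μM, 15 mM MgCl2) onto peptide substrates at 30° C. Each assay used 2-4 μg active recombinant enzyme in pH 7.4 buffer. Reactions stopped on ice, filtered, acid-washed and counted; compounds diluted into 10% DMSO in assay buffer.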

CDK4-cyclin D1 = CDK4-cyclin D1 (Homo sapiens, UniProt P11802); experiment: Kinase assay (radioactive phosphate incorporation), CDK4-cyclin D1; format: biochemical; conditions: read-out: Kinase Inhibition pIC50 CDK4-cyclin D1 (converted)
CDK4-cyclin D1, sequence (P11802 whole entry): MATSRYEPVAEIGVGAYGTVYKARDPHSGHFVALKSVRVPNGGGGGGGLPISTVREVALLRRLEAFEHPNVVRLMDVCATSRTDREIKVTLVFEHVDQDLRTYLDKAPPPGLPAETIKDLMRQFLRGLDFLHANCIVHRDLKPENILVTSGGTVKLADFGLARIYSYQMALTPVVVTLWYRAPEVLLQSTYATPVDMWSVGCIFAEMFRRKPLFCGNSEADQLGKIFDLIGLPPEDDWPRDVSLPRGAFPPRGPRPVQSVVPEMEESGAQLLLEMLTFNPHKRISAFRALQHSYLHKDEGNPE
CDK4-cyclin D1, sequence (P24385 whole entry partner): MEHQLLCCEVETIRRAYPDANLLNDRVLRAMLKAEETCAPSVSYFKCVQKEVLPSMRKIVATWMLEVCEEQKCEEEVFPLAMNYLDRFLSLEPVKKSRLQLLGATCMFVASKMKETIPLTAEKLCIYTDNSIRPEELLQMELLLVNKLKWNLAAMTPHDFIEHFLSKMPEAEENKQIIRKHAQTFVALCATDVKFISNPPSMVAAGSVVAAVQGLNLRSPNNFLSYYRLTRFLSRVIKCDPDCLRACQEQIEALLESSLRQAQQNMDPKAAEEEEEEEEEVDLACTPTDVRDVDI
Experimental: as §1

CDK1-cyclin B, sequence (P06493 whole entry): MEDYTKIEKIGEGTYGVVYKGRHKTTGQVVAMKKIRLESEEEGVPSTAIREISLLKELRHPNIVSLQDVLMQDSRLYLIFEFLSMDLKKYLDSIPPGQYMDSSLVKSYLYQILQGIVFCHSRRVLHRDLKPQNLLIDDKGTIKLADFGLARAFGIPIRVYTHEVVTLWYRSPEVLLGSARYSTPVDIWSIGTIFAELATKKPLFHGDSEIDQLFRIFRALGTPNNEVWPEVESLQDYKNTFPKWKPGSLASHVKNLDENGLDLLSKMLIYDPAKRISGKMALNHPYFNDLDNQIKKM
CDK1-cyclin B, sequence (P14635 whole entry partner): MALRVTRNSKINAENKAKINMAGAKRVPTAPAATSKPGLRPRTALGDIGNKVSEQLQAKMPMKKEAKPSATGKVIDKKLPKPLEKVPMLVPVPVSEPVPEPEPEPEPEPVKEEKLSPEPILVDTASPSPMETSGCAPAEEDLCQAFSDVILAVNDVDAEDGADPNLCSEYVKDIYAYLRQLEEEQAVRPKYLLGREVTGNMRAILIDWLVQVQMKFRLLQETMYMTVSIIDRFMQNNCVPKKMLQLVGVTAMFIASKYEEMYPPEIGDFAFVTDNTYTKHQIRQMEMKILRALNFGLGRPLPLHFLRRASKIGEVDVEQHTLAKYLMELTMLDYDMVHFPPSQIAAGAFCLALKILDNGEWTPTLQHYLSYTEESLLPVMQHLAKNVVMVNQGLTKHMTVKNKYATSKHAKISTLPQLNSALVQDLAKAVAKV

Row | SMILES | IC50 (CDK1-cyclin B) [nM] | IC50 [1] [nM] | IC50 (Aurora A kinase) [nM] | IC50 (CDK9/cyclin T1) [nM] | IC50 (CDK7/cyclin H) [nM] | IC50 (CDK2-cycline E) [nM] | IC50 (CDK4-cyclin D1) [nM] | melting point [°C]
1 | CCNc1nc(C)c(-c2ccnc(Nc3cc(OC)c(OC)c(OC)c3)n2)s1 [Compound 24, [4-(2-Ethylamino-4-methyl-thiazol-5-yl)-pyrimidin-2-yl]-(3,4,5-trimethoxy-phenyl)-amine] | 2000 | 7.94 | 2.51 | 31.6 | – | – | – | –
2 | CCNc1nc(C)c(-c2ccnc(Nc3cccc(S(=O)(=O)NCC)c3)n2)s1 [Compound 29, N-Ethyl-3-[4-(2-ethylamino-4-methyl-thiazol-5-yl)-pyrimidin-2-ylamino]-benzenesulfonamide] | – | 1000 | 50.1 | 10 | 794 | 316 | 398 | –
3 | CCNc1nc(C)c(-c2ccnc(NCc3cccnc3)n2)s1 [Compound 79, [4-(2-Ethylamino-4-methyl-thiazol-5-yl)-pyrimidin-2-yl]-pyridin-3-ylmethyl-amine] | – | – | – | 1580 | 6310 | 6310 | 3160 | –
4 | CC(=O)NCc1ccc(Nc2nccc(-c3sc(-c4cccnc4)nc3C)n2)cc1 [Compound 103, N-{4-[4-(4-Methyl-2-pyridin-3-yl-thiazol-5-yl)-pyrimidin-2-ylamino]-benzyl}-acetamide] | – | – | – | 5010 | 2510 | 2510 | – | 199 to 201
5 | CC(=O)N1CCN(c2ccc(Nc3nccc(-c4sc(NCCc5ccccc5)nc4C)n3)cc2)CC1 [Compound 163, 1-(4-{4-[4-(4-Methyl-2-phenethylamino-thiazol-5-yl)-pyrimidin-2-ylamino]-phenyl}-piperazin-1-yl)-ethanone] | – | 126 | 63.1 | 631 | 2510 | 1260 | – | 212 to 213
6 | CC(=O)N1CCN(c2ccc(Nc3nccc(-c4sc(N(C)c5cccnc5)nc4C)n3)cc2)CC1 [Compound 164, 1-[4-(4-{4-[4-Methyl-2-(methyl-pyridin-3-yl-amino)-thiazol-5-yl]pyrimidin-2-ylamino}-phenyl)-piperazin-1-yl]-ethanone] | – | 25.1 | 31.6 | 2000 | 3980 | 398 | – | 205 to 206
7 | COc1cc(Nc2nccc(-c3sc(NCCc4ccccc4)nc3C)n2)cc(OC)c1OC [Compound 165, [4-(4-Methyl-2-phenethylamino-thiazol-5-yl)-pyrimidin-2-yl]-(3,4,5-trimethoxy-phenyl)-amine] | – | 20 | 63.1 | – | – | 2510 | – | 184 to 186

Now from value to compound:

Row | IC50 (CDK1-cyclin B) [nM] | IC50 [1] [nM] | IC50 (Aurora A kinase) [nM] | IC50 (CDK9/cyclin T1) [nM] | IC50 (CDK7/cyclin H) [nM] | IC50 (CDK2-cycline E) [nM] | IC50 (CDK4-cyclin D1) [nM] | melting point [°C] | SMILES
8 | – | 316 | 251 | – | – | – | – | 240 to 242 | Cc1nc(-c2cccnc2)sc1-c1ccnc(Nc2ccc(N3CCOCC3)cc2)n1 [Compound 100, [4-(4-Methyl-2-pyridin-3-yl-thiazol-5-yl)-pyrimidin-2-yl]-(4-morpholin-4-yl-phenyl)-amine]
9 | – | – | 251 | 2510 | 1580 | 2510 | – | 134 to 136 | CC(=O)N1CCN(c2ccc(Nc3nccc(-c4sc(-c5cccs5)nc4C)n3)cc2)CC1 [Compound 131, 1-(4-{4-[4-(4-Methyl-2-thiophen-2-yl-thiazol-5-yl)-pyrimidin-2-ylamino]-phenyl}-piperazin-1-yl)-ethanone]
10 | – | 5.01 | 100 | – | – | 158 | – | 269 to 271 | COc1cc(Nc2nccc(-c3sc(N)nc3C)n2)cc(OC)c1 [Compound 161, [4-(2-Amino-4-methyl-thiazol-5-yl)-pyrimidin-2-yl]-(3,5-dimethoxy-phenyl)-amine]
11 | – | – | 63.1 | 1580 | – | 1580 | – | 180 to 182 | Cc1nc(N)sc1-c1ccnc(Nc2ccc(N3CCSCC3)cc2)n1 [Compound 201, [4-(2-Amino-4-methyl-thiazol-5-yl)-pyrimidin-2-yl]-(4-thiomorpholin-4-yl-phenyl)-amine]
12 | – | – | 126 | 3160 | – | 2000 | – | 207 to 209 | CCNc1nc(C)c(-c2ccnc(Nc3ccc(N4CCSCC4)cc3)n2)s1 [Compound 203, [4-(2-Ethylamino-4-methyl-thiazol-5-yl)-pyrimidin-2-yl]-(4-thiomorpholin-4-yl-phenyl)-amine]
13 | – | – | 158 | – | – | 1260 | – | 221 to 223 | Cc1cc(Nc2nccc(-c3sc(N)nc3C)n2)ccc1N1CCCCC1 [Compound 206, [4-(2-Amino-4-methyl-thiazol-5-yl)-pyrimidin-2-yl]-(3-methyl-4-piperidin-1-yl-phenyl)-amine]
14 | – | – | 63.1 | 1580 | – | 1260 | – | 256 to 257 | Cc1cc(Nc2nccc(-c3sc(N)nc3C)n2)ccc1N1CCOCC1 [Compound 218, [4-(2-Amino-4-methyl-thiazol-5-yl)-pyrimidin-2-yl]-(3-methyl-4-morpholin-4-yl-phenyl)-amine]
15 | – | – | 63.1 | 3160 | – | 1000 | – | 213 to 214 | CCNc1nc(C)c(-c2ccnc(Nc3ccc(N4CCOCC4)c(C)c3)n2)s1 [Compound 219, [4-(2-Ethylamino-4-methyl-thiazol-5-yl)-pyrimidin-2-yl]-(3-methyl-4-morpholin-4-yl-phenyl)-amine]
16 | – | – | 39.8 | 6310 | – | 1260 | – | 164 to 166 | Cc1nc(C)c(-c2ccnc(Nc3ccc(N4CCOCC4)c(C)c3)n2)s1 [Compound 220, [4-(2,4-Dimethyl-thiazol-5-yl)-pyrimidin-2-yl]-(3-methyl-4-morpholin-4-yl-phenyl)-amine]
